Assays:
[1] = Safety assessment, adverse event monitoring (Parts I-V); type: in vivo, human
Protocol: Safety was assessed using subject interviews and adverse event (AE) monitoring. All subjects received laboratory examinations after termination of drug infusion for 48 or 72 h; the examination items are the same as those listed in the screening process. If clinical abnormalities were present, further follow-ups were required until the laboratory test values or vital sign levels of the abnormal items returned to normal values or stable levels. The clinical significance of abnormal laboratory test values was determined by the physicians.
The vital signs were analyzed by repeated measures analysis of variance (ANOVA), and laboratory indexes were analyzed by the paired t-test and one-way ANOVA. Comparison within different dose regimens of pyragrel or among different treatments (pyragrel, ozagrel, and placebo) or production of urinary 11-D-HTXB2 among groups was performed with the t-test, and expected values were considered along with the actual situation. Descriptive methods were used to compare the incidence of AE between pyragrel and ozagrel/placebo or in different pyragrel dose regimens; the normal/abnormal changes in laboratory examinations before and after administration were described.

[2] = set-up: method as in Morio et al., 1993; settings: patients with ozagrel treatment; ref Morio et al., 1993; cited from earlier work
[3] = dog, in vivo; cited from earlier work
[4] = Part I, controls of the 30 mg dose group (ozagrel 80 mg)
[5] = Part I, controls of the 120 mg dose group (ozagrel 80 mg)
[6] = Part I, controls of the 180 mg dose group (ozagrel 80 mg)

With `O=C(O)/C=C/c1ccc(Cn2ccnc2)cc1` [Ozagrel, Sodium ozagrel, reference compound] the “Number of AEs in Part I” value ([1]; Part I, 36 pyragrel-treated subjects, 8 subjects of ozagrel treatment) was 3, the “AE Type, Ozagrel/placebo” value [1, 4] was “DB elevation” and the “Number of AEs, Ozagrel/placebo” value [1, 4] was 1. The “Number of AEs, Ozagrel/placebo” value ([1]; Part I, controls of the 60 mg dose group (ozagrel 80 mg)) was 0, the “AE Type, Ozagrel/placebo” value [1, 5] was “DB elevation” and the “Number of AEs, Ozagrel/placebo” value [1, 5] was 1. For the same compound, the “AE Type, Ozagrel/placebo” value [1, 6] was “abdominal pain”, the “Number of AEs, Ozagrel/placebo” value [1, 6] was 1 and the “Number of AEs, Ozagrel/placebo” value ([1]; Part I, listed as of the 240 mg dose group) was 0. The “Number of AEs, Ozagrel/placebo” value ([1]; Part I, listed as of the 300 mg dose group) was 0, the “Number of AEs, Ozagrel/placebo” value ([1]; Total) was 3 and the “Incidence of elevation in conjugated bilirubin (DB elevation)” value ([1]; all parts, 12/68 subjects of pyragrel, 2/8 subjects of ozagrel) was 25%. The “Incidence rate of severe bleeding” value [2] was “up to 5%” and the Maximum safe dose [3] was 12.5 mg/kg/day.

Source: PMC6821791, “Phase I Trial of Pyragrel, a Novel Thromboxane Synthetase Inhibitor, to Evaluate the Safety, Tolerability, and Pharmacokinetics in Healthy Volunteers” (Frontiers in Pharmacology, 2019)
